Assay results from patent publication US20250002435A1, “ARYLATED FENCHONE DERIVATIVES, COMPOSITIONS COMPRISING THEM, PROCESSES FOR THEIR PREPARATION AND USES THEREOF” (priority 2021, published 2025).
“Also recorded” adds a separate entry of the source.

Experiments:
[1] = system: Human OA derived articular chondrocytes; assay: cAMP-Glo EC50 in chondrocyte cell cultures; format: cell-based; settings: 45 min treatment
Text: All human cell cultures were obtained from total knee replacement surgery (TKA) in accordance with Hadassah Medical Center Institutional Review Board approval and in accordance with the Helsinki Declaration ethical principles for medical research involving human subjects (Study #0488-09). Following written informed consent, articular cartilage was obtained from the knee joints of OA patients undergoing total knee arthroplasty (n=51, mean age 71 years, mean body mass index 31 kg/m2, Kellgren and Lawrence score ranging 3-4). Articular cartilage tissue was dissected, chondrocytes isolated and plated as described by Bar Oz et al., (10). Isolated chondrocytes were passaged to passage 3, and plated in 96 well plates with DMEM media containing 10% FCS, 1% Penicillin-streptomycin, 1% Amphotericin B. Cultures were maintained in standard incubation conditions (37° C., 5% CO2) until confluence. All reagents for cell culture were purchased for Biological Industries (Israel, Beit-Haemek Kibutz), unless otherwise indicated. […] Luminescence was measured and a standard curve was simultaneously run per plate. […] Using this ΔRLU value and the linear equation generated from the standard curve, the cAMP concentration was calculated. […]

mCB1R = mCB1R (Mus musculus (Mouse), UniProt P47746); assay: [3H]CP-55,940 competition displacement binding, crude membranes from mouse brain; settings: for Ki: displacement of [3H]CP-55,940, NB = No binding detected at concentrations up to 10 μM, read-out: Ki (nM) mCB1R
mCB1R, sequence (P47746 whole entry): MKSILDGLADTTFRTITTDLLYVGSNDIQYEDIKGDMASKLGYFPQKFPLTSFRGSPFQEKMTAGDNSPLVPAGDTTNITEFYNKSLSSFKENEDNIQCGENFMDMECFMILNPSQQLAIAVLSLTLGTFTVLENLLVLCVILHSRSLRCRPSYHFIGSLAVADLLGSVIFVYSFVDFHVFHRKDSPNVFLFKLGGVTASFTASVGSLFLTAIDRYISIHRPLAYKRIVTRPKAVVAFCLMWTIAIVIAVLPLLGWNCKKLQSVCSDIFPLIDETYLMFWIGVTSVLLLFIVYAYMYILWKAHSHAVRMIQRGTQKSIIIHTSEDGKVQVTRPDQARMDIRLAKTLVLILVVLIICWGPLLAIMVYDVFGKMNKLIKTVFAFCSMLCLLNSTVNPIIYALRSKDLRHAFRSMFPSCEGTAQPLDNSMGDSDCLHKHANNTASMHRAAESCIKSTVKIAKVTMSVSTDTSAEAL
Method: Affinity for Cannabinoid Receptors. The compounds were further characterized using a radioligand binding assay to determine their affinities for CB1R and CB2R based on each test compound's ability to displace the radiolabeled CB1R/CB2R agonist CP-55,940 from membranes prepared from a mouse brain (a source of CB1R) and membranes of cells expressing the human CB2R. […] Therefore, the compounds were assayed using membranes from CHO-K1 cells expressing the human CB2R (hCB2R).
Membranes from cells expressing human CB2R were purchased from Charles River, (Cat #A308; Ohio, US). Solutions of test compounds ranging from 0.1 nM to 10 mM were prepared in DMSO. The desired amount of membrane preparation was diluted with ice-cold assay buffer (50 mM Tris-HCl, 2.5 mM EDTA, 5 mM MgCl2, 0.1% BSA, pH 7.4) and was vortexed. […] The assays were incubated for 90 minutes at 30° C. and then immediately filtered on WHATMAN GF/B FilterPaper (Fired) using a Brandel M-24R Harvester followed by six washes with ice cold wash buffer (50 mM Tris-HCl, 2.5 mM EDTA, 5 mM MgCl2, 0.1% BSA, pH 7.4). Radioactivity was detected by adding the FilterPaper directly to the ULTIMA GOLD scintillation cocktail (PerkinElmer), incubation at 20° C. for 60 min and then counted using a Tri-Carb 4910TR liquid scintillation counter.

CNR1 = CNR1 (Homo sapiens (Human), UniProt P21554); assay: cAMP Hunter antagonist assay, CB1; format: cell-based; settings: cAMP antagonist mode
Method: (§1) Cannabinoid receptors belong to G-protein-coupled receptors which may transduce intracellular agonist-antagonist responses regulating in part levels of cAMP within the cells. Fenchone derivates were assayed using Eurofins proprietary assays (i.e. CB1-Antagonist Catalog #86-0007P-2277AN; CB2-Antagonist Catalog ref. 86-0007P-2818AN; CB1-Agonist; Catalog #86-0007P-2277AG; CB2-Agonist-Catalog #86-0007P-2818AG).
(§2) Briefly, for antagonist activity, cAMP Hunter™ Gi cell lines overexpress naturally Gi coupled, wild type GPCRs and are designed to detect inhibition of intracellular cAMP production in response to agonist stimulation of the receptor. These cell lines are designed to be used in conjunction with the HitHunter® cAMP Assay Detection Kit.
as §2, with “Similarly,” for “Briefly,”, “agonist” for “antagonist”, “Gs” for “Gi”, “increases in” for “inhibition of”, “levels” for “production”, “Kit. […]” for “Kit.”

CNR2 [2] = target: T1, CNR2 (Homo sapiens (Human), UniProt P34972); assay: cAMP Hunter antagonist assay, CB2; format: cell-based; settings: cAMP antagonist mode
Method: as §1, §2
as §2, with “Similarly,” for “Briefly,”, “agonist” for “antagonist”, “Gs” for “Gi”, “increases in” for “inhibition of”, “levels” for “production”, “Kit. […]” for “Kit.”

CNR2 [3] = target: T1, CNR2; assay: cAMP Hunter agonist assay, CHO-K1 cells expressing CB2; format: cell-based; settings: for EC50: cells expressing CNR2; for agonist response CNR2: cells expressing CNR2, cAMP
Method: as §1
Similarly, for agonist activity, cAMP Hunter™ Gs cell lines overexpress naturally Gs coupled, wild type GPCRs and are designed to detect increases in intracellular cAMP levels in response to agonist stimulation of the receptor. These cell lines are designed to be used in conjunction with the HitHunter® cAMP Assay Detection Kit. For both assays, human CB1 or CB2 receptors were stably transfected CHO-K1 cells and subjected to positive controls, known to activate the increase of cAMP for both receptors (Agonist control 20 μM Forskolin for CB1 and 25 μM Forskolin for CB2) or inhibit cAMP intracellular levels of CB1 ([…] CP55940) or CB2 ([…] CP55940). Cells were seeded in a total volume of 20 μL into white walled, 384-well microplates and incubated at 37° C. overnight. Prior to testing cell plating media was exchanged with 10 uL of Assay buffer (HBSS+10 mM HEPES). Five 5 μL of agonist (test sample, vehicle or positive control) were added to cells and incubated at 37° C. for 30 minutes. Final assay vehicle concentration was 1% and the results are expressed in relation to the control ligand.

TNFα = assay: serum TNFα ELISA 24 h after zymosan injection; format: in vivo, mouse; settings: 25 mg/kg, serum 24 h after zymosan
Method: Blood was collected 24 h after zymosan injection, and the sera were assayed for TNFα using a mouse TNFα ELISA kit (R&D Systems, Minneapolis, MN, USA), according to the manufacturer's instructions.

Row | Compound | EC50 in chondrocytes compared with HU308 [1] | Ki (mCB1R) | antagonistic effect CNR1 (CNR1) | antagonistic effect CNR2 (CNR2 [2]) | EC50 (CNR2 [3]) | agonist response CNR2 (CNR2 [3]) | levels of TNF-α (TNFα) | inhibition of [3H]CP-55,940 binding to mCB1R (mCB1R; in words)
1 | CCCCCCC(C)(C)c1cc(OC)c([C@]2(O)C3(C)CCC(C3)C2(C)C)c(OC)c1 (some centres unmarked) [Compound 1d, 2-(2,6′-dimethoxy-4′-(2″-methyloctan-2″-yl)phenyl)-1,3,3-trimethyl-bicyclo[2.2.1]heptan-2-ol] | low EC50; also recorded: superior EC50 over HU308 | 427 nM | no detectable antagonistic effect | no detectable antagonistic effect | 0.01 µM | noticeable response | reduced significantly | 
2 | CCCCCc1cc(OC)c(C2(O)C3(C)CCC(C3)C2(C)C)c(OC)c1 (single isomer, unassigned) [Compound 1b, 2-(2,6′-dimethoxy-4′-pentylphenyl)-1,3,3-trimethylbicyclo[2.2.1]heptan-2-ol] | low EC50; also recorded: superior EC50 over HU308 | 2290 nM | no detectable antagonistic effect | no detectable antagonistic effect | 0.05 µM | noticeable response |  | no detectable inhibition
